Data: patent publication US20230148417A1, “FUSED BICYCLIC DERIVATIVE, PREPARATION METHOD THEREFOR, AND PHARMACEUTICAL USE THEREOF” (Jiangsu Hengrui Pharmaceuticals Co., Ltd., priority 2020, published 2023)
Read-outs that look alike come from different tables or passages of the source. One block for each compound: values may come before it.

Tests used:
[1] = biological target: T1, AKT2 (Homo sapiens, UniProt P31751); test: AKT2 enzymatic assay (KinEASE-STK S3 HTRF kit); assay type: biochemical; conditions: 5 nM enzyme, 10 μM ATP, 2 μM S3-biotin
T1 construct: purchased Invitrogen PV3184
Method: (§1) The following methods were used to determine the inhibitory effect of the compounds of the present disclosure on the kinase activity of AKT1/AKT2/AKT3 in vitro. The experimental methodology is briefly described as follows:
(§2) The enzyme activity of AKT1 (Invitrogen, P2999), AKT2 (Invitrogen, PV3184) and AKT3 (Invitrogen, PV3185) was determined using a KinEASE-STK S3 kit (Cisbio, 62ST3PEC). Test compounds were each first subjected to 3-fold gradient dilution with DMSO from 500 μM to obtain a total of 11 concentrations. The 5× buffer in the kit was diluted to 1×buffer, and DTT (Sigma, 43816-10ML) and MgCl2 were added to make the buffer contain 1 mM DTT and 5 mM MgCl2. Compounds were each subjected to 20-fold dilution with 1× buffer for later use. The enzyme solution was obtained by diluting the AKT1/AKT2/AKT3 kinase with 1× buffer. ATP (Invitrogen, PV3227) and S3-biotin in the kit were diluted with 1× buffer to obtain a substrate-ATP mixture solution for later use. 2 μL of the enzyme solution and 4 μL of the compound solution were added to each well of a 384-well plate (Corning, 4513), and the mixture was incubated at room temperature for 30 min, followed by addition of 4 μL of the ATP and S3-biotin mixture solution. The resulting mixture was incubated at room temperature for 90 min. AKT1 enzyme reaction conditions were a final concentration of 2 nM for enzyme, a final concentration of 10 μM for ATP, and a final concentration of 2 μM for S3-biotin. AKT2 enzyme reaction conditions were a final concentration of 5 nM for enzyme, a final concentration of 10 μM for ATP, and a final concentration of 2 μM for S3-biotin. AKT3 enzyme reaction conditions were a final concentration of 0.4 nM for enzyme, a final concentration of 45 μM for ATP, and a final concentration of 2 μM for S3-biotin. The detection solution was prepared by diluting the S3-cryptate and streptavidin-XL665 with the detection buffer in the kit. After incubation, 10 μL of the detection solution was added to each well, the final concentration of S3-cryptate was a concentration obtained by 200-fold dilution of the stock solution, and the final concentration of streptavidin-XL665 was 125 nM. The mixture was incubated at room temperature for 60 min, values of signals emitted at […] and 620 nm after excitation at 337 nm were measured by using an HTRF module of a multi-functional microplate detector (BMG Labtech, PHERAstar FS), and the reading ratio was multiplied by 10,000 to obtain a specific value. Dose-response curves were drawn according to the concentration of the compounds and the specific values by using Graphpad Prism software, and the IC50 values for the inhibitory activity of the compounds were calculated.

[2] = biological target: T2, AKT3 (Homo sapiens, UniProt Q9Y243); test: AKT3 enzymatic assay (KinEASE-STK S3 HTRF kit); assay type: biochemical; conditions: 0.4 nM enzyme, 45 μM ATP, 2 μM S3-biotin
T2 construct: purchased Invitrogen PV3185
Method: as §1, §2

[3] = biological target: T3, AKT1 (Homo sapiens, UniProt P31749); test: AKT1 enzymatic assay (KinEASE-STK S3 HTRF kit); assay type: biochemical; conditions: 2 nM enzyme, 10 μM ATP, 2 μM S3-biotin
T3 construct: purchased Invitrogen P2999
Method: as §1, §2

[4] = Pharmacokinetic study in nude mice, intragastric administration; assay type: in vivo; conditions: female, mouse, po, Balb/c nude mice, i.g., plasma; for Vd/F: read-out: Apparent volume of distribution Vz/F; for AUC(0-t): read-out: Area under curve AUC0-t; for CL/F: read-out: Clearance CL/F; for half-life: read-out: Half-life T1/2 (converted); for Cmax: read-out: Plasma concentration Cmax; for MRT: read-out: Residence time MRT
Method: The drug concentration in the plasma of the test animals (Balb/c nude mice) at different time points after intragastric administration (i.g.) of the test compounds was determined by using an LC/MS/MS method. The pharmacokinetic performance of the compounds of the present disclosure in nude mice was studied and their pharmacokinetic profile was evaluated.
18 Balb/c nude mice, female, divided into 2 groups and purchased from Vital River Laboratory Animal Technology Co., Ltd.
A certain amount of compound was weighed out, 99.8% 0.5% methylcellulose was added into the compound, and then 0.2% Tween was added. The mixture was subjected to ultrasonic treatment to obtain a suspension, which was stirred for administration.
The nude mice were subjected to intragastric administration, the administration dose was 50 mg/kg or 100 mg/kg, and the administration volume was 0.2 mL/10 g.
The test compound was administered intragastrically to the nude mice, and 0.1 mL of blood was collected before administration and 0.25 h, 0.5 h, 1.0 h, 2.0 h, 4.0 h, 6.0 h, 8.0 h, 11.0 h and 24.0 h after administration. The blood was placed in an EDTA-K2 anticoagulation tube and centrifuged at 10,000 rpm for 1 min (4° C.), and plasma was separated out within 1 h and then stored at −20° C. for testing. The process from blood sampling to centrifugation was performed under an ice bath.
The content of the test compounds at different concentrations in the nude mice plasma after intragastric administration was determined: 20 μL of nude mouse plasma at each time point after administration was mixed with 50 μL of internal standard solution (camptothecin, 100 ng/mL) and 200 μL of acetonitrile, and the mixture was vortexed for 5 min and centrifuged for 10 min at 3700 rpm. 1 μL of supernatant of the plasma sample was taken for LC/MS/MS analysis.

[5] = Pharmacokinetic study in rats, administration by injection (i.v.); assay type: in vivo; conditions: both sexes, rat, iv, SD rats, 1 mg/kg, plasma; for Vd: read-out: Apparent volume of distribution Vz; for AUC(0-t): read-out: Area under curve AUC0-t; for clearance: read-out: Clearance CL; for half-life: read-out: Half-life T1/2 (converted); for MRT: read-out: Residence time MRT
Method: The drug concentration in the plasma of the test animals (SD rats) at different time points after injection (i.v.) of the test compounds was determined by using an LC/MS/MS method. The pharmacokinetic performance in rats of the compounds of present disclosure was studied and their pharmacokinetic profile was evaluated.
8 SD rats, half male and half female, divided into 2 groups, purchased from Vital River Laboratory Animal Technology Co., Ltd.
A certain amount of the compound was weighed out, and 5% of DMSO, 5% of Tween 80 and 90% of normal saline were added to obtain a colorless and clear solution.
The rats were subjected to administration by injection, the administration dose was 1 mg/kg, and the administration volume was 5 mL/kg.
The test compound was administered by injection to the rats, and 0.2 mL of blood was collected from the orbit before administration and 5 min, 0.25 h, 0.5 h, 1.0 h, 2.0 h, 4.0 h, 8.0 h, 11.0 h and 24.0 h after administration. The blood was placed in an EDTA-K2 anticoagulation tube and centrifuged at 10,000 rpm for 1 min (4° C.), and plasma was separated out within 1 h and then stored at −20° C. for testing. The process from blood sampling to centrifugation was performed under an ice bath.
The content of the test compounds at different concentrations in the rat plasma after administration by injection was determined: 25 μL of rat plasma at each time point after administration was mixed with 50 μL of internal standard solution (camptothecin, 100 ng/mL) and 200 μL of acetonitrile, and the mixture was vortexed for 5 min and centrifuged for 10 min at 3700 rpm. 3 μL of supernatant of the plasma sample was taken for LC/MS/MS analysis.

T3 sequence (P31749 whole entry): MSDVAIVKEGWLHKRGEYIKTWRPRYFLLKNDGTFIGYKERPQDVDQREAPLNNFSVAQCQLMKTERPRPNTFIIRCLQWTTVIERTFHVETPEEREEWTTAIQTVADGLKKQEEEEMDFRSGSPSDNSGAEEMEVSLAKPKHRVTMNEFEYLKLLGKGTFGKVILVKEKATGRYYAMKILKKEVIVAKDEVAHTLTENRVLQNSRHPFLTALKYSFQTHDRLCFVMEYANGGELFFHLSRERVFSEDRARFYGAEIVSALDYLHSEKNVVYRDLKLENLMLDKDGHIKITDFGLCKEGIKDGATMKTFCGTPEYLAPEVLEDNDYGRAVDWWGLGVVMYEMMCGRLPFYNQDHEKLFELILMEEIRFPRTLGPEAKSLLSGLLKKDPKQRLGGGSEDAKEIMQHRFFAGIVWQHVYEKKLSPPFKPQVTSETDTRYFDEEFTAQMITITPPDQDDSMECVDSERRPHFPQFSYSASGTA
T1 sequence (P31751 whole entry): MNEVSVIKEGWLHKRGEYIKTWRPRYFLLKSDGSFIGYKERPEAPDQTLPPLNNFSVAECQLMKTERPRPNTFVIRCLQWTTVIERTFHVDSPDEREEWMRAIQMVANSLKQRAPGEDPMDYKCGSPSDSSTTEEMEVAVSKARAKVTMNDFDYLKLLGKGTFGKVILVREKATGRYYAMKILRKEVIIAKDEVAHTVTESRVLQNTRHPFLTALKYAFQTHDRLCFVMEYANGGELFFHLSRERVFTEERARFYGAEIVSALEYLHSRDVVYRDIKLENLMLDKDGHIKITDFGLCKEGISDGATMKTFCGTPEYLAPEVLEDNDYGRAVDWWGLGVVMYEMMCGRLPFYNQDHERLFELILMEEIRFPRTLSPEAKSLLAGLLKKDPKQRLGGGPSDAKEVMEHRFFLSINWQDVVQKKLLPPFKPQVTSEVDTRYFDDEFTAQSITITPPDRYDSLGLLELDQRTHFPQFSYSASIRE
T2 sequence (Q9Y243 whole entry): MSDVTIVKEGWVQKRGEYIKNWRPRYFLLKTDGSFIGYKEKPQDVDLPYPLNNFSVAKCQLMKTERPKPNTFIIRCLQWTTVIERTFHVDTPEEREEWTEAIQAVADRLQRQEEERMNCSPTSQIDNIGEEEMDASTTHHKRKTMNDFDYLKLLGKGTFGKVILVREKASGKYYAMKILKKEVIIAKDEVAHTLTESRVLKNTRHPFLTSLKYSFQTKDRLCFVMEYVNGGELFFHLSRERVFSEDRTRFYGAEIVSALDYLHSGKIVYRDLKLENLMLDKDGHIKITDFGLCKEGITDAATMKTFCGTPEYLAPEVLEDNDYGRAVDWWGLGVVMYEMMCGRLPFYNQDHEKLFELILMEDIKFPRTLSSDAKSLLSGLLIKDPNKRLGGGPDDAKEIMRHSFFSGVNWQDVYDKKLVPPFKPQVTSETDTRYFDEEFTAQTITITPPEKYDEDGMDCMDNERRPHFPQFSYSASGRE

IC50 [1]: 54 nM | IC50 [2]: 66 nM | IC50 [3]: 56.2 nM
SMILES: CC(C)NC[C@@H](C(=O)N1[C@@H]2CC[C@H]1CN(c1ncnc3c1[C@H](C)C[C@H]3F)C2)c1ccc(Cl)cc1 [Example 8, (S)-2-(4-chlorophenyl)-1-((1R,5S)-3-((5R,7R)-7-fluoro-5-methyl-6,7-dihydro-5H-cyclopenta[d]pyrimidin-4-yl)-3,8-diazabicyclo[3.2.1]octan-8-yl)-3-(isopropylamino)propan-1-one]

SMILES: CC(C)NC[C@@H](C(=O)N1[C@@H]2CC[C@H]1CN(c1ncnc3c1[C@H](C)C[C@H]3O)C2)c1ccc(Cl)cc1 [Example 4, (S)-2-(4-chlorophenyl)-1-((1R,5S)-3-((5R,7R)-7-hydroxy-5-methyl-6,7-dihydro-5H-cyclopenta[d]pyrimidin-4-yl)-3,8-diazabicyclo[3.2.1]octan-8-yl)-3-(isopropylamino)propan-1-one]
Vd/F ([4]; 50 mg/kg): 8.71 L/kg | AUC(0-t) ([4]; 50 mg/kg): 14300 ng·h/mL | CL/F ([4]; 50 mg/kg): 57.5 mL/min/kg | half-life ([4]; 50 mg/kg): 1.8 h | Cmax ([4]; 50 mg/kg): 4130 ng/mL | MRT ([4]; 50 mg/kg): 3 h | Vd/F ([4]; 100 mg/kg): 13.2 L/kg | AUC(0-t) ([4]; 100 mg/kg): 27500 ng·h/mL | CL/F ([4]; 100 mg/kg): 60.5 mL/min/kg | half-life ([4]; 100 mg/kg): 2.5 h | Cmax ([4]; 100 mg/kg): 5500 ng/mL | MRT ([4]; 100 mg/kg): 3.7 h | Vd [5]: 16.3 L/kg | AUC(0-t) [5]: 205 ng·h/mL | clearance [5]: 82.9 mL/min/kg | half-life [5]: 2.5 h | MRT [5]: 2.2 h | IC50 [1]: 46.4 nM | IC50 [2]: 55.6 nM | IC50 [3]: 38.6 nM

IC50 [1]: 64.9 nM | IC50 [2]: 27.6 nM | IC50 [3]: 20 nM
SMILES: CC(C)NC[C@@H](C(=O)N1[C@@H]2CC[C@H]1CN(c1ncnc3[nH]ccc13)C2)c1ccc(Cl)cc1 [Example 1, (S)-1-((1R,5S)-3-(7H-pyrrolo[2,3-d]pyrimidin-4-yl)-3,8-diazabicyclo[3.2.1]octan-8-yl)-2-(4-chlorophenyl)-3-(isopropylamino)propan-1-one]

SMILES: Cc1c[nH]c2nccc(N3C[C@H]4CC[C@@H](C3)N4C(=O)[C@H](CNC(C)C)c3ccc(Cl)cc3)c12 [Example 9, (S)-2-(4-chlorophenyl)-3-(isopropylamino)-1-((1R,5S)-3-(3-methyl-1H-pyrrolo[2,3-b]pyridin-4-yl)-3,8-diazabicyclo[3.2.1]octan-8-yl)propan-1-one]
IC50 [1]: 13.1 nM | IC50 [2]: 6.3 nM | IC50 [3]: 19.6 nM

SMILES: CC(C)NC[C@@H](C(=O)N1C2CCCC1CN(c1ncnc3[nH]ccc13)C2)c1ccc(Cl)cc1 [Example 5, (2S)-1-(3-(7H-pyrrolo[2,3-d]pyrimidin-4-yl)-3,9-diazabicyclo[3.3.1]nonan-9-yl)-2-(4-chlorophenyl)-3-(isopropylamino)propan-1-one]
IC50 [1]: 70.1 nM | IC50 [2]: 112 nM | IC50 [3]: 68.1 nM

SMILES: CC(C)NC[C@@H](C(=O)N1C2CCC1CN(c1ncnc3c1C(C)(C)C(=O)N3)C2)c1ccc(Cl)cc1 [Example 2]
Vd/F ([4]; 50 mg/kg): 8.03 L/kg | AUC(0-t) ([4]; 50 mg/kg): 20200 ng·h/mL | CL/F ([4]; 50 mg/kg): 41.2 mL/min/kg | half-life ([4]; 50 mg/kg): 2.3 h | Cmax ([4]; 50 mg/kg): 3000 ng/mL | MRT ([4]; 50 mg/kg): 4.9 h | Vd/F ([4]; 100 mg/kg): 16.2 L/kg | AUC(0-t) ([4]; 100 mg/kg): 36000 ng·h/mL | CL/F ([4]; 100 mg/kg): 45.4 mL/min/kg | half-life ([4]; 100 mg/kg): 4.1 h | Cmax ([4]; 100 mg/kg): 3500 ng/mL | MRT ([4]; 100 mg/kg): 6.7 h | Vd [5]: 13 L/kg | AUC(0-t) [5]: 221 ng·h/mL | clearance [5]: 75.4 mL/min/kg | half-life [5]: 2 h | MRT [5]: 2.6 h | IC50 [1]: 74.1 nM | IC50 [2]: 2 nM | IC50 [3]: 60 nM

SMILES: CC(C)NC[C@@H](C(=O)N1C2COCC1CN(c1ncnc3[nH]ccc13)C2)c1ccc(Cl)cc1 [Example 6, (2S)-1-(7-(7H-pyrrolo[2,3-d]pyrimidin-4-yl)-3-oxa-7,9-diazabicyclo[3.3.1]nonan-9-yl)-2-(4-chlorophenyl)-3-(isopropylamino)propan-1-one]
IC50 [1]: 141 nM | IC50 [2]: 268 nM | IC50 [3]: 88.4 nM

SMILES: CC(C)NC[C@@H](C(=O)N1CC2COCC(C1)N2c1ncnc2[nH]ccc12)c1ccc(Cl)cc1 [Example 7, (2S)-1-(9-(7H-pyrrolo[2,3-d]pyrimidin-4-yl)-3-oxa-7,9-diazabicyclo[3.3.1]nonan-7-yl)-2-(4-chlorophenyl)-3-(isopropylamino)-propan-1-one]
IC50 [1]: 270 nM | IC50 [2]: 60 nM | IC50 [3]: 82 nM

IC50 [1]: 3.9 nM | IC50 [2]: 1.2 nM | IC50 [3]: 5.2 nM
SMILES: Cc1c[nH]c2ncnc(N3C[C@H]4CC[C@@H](C3)N4C(=O)[C@H](CNC(C)C)c3ccc(Cl)cc3)c12 [Example 3, (S)-2-(4-chlorophenyl)-3-(isopropylamino)-1-((1R,5S)-3-(5-methyl-7H-pyrrolo[2,3-d]pyrimidin-4-yl)-3,8-diazabicyclo[3.2.1]octan-8-yl]propan-1-one]
